The target of the test is HCV replication. The test is described as follows: Luciferase reporter-linked transient HCV replication assay (FL-J6/JFH-5′C19Rluc2AUbi RNA). The class given is cell-based, hepatitis C virus (HCV). The procedure: FIGS. 7A-7B. A PIP-2 ligand inhibits HCV replication in a dose-dependent manner. Luciferase reporter-linked HCV replication assay. Huh 7.5 cells were electroporated with 10 ug of in vitro-transcribed wild type, FL-J6/JFH-5′C19Rluc2AUbi RNAs. Electroporated cells were treated with […] of neomyin. Renilla luciferase activities were measured at 5 days after electroporation. Alamar blue assays were performed to compare relative cell viabilities.
The NS5A PIP2 interaction is amenable to pharmacologic disruption. […] Such inhibitors represent a valuable new class of anti-HCV agents to be included in future therapeutic cocktails designed to maximize efficiency of, and minimize resistance to, therapies for treating hepatitis C.
The electroporated cells were diluted in 18 ml of cell culture medium. 1 ml of cells was aliquoted in 6 well tissue culture plates. Electroporated cells were treated with 0, 172, 345, 689, 1378, and 2756 μM of neomyin for 5 days. Renilla luciferase activities were measured by using renilla luciferase kit from Promega (Madison, Wis.).
(In general: A reporter such as luciferase makes a cellular process visible.)

Broadly, the EC50 is the concentration that produces a half-maximal response.

Regarding neomycin, the concentration giving a half-maximal response (EC50) (Renilla luciferase activity 5 days after electroporation, read-out: EC50 against HCV replication) was 200 µM. For the same substance, where the note is “increasing concentrations of neomycin (0-2756 μM), 5 days”, the “inhibition of HCV genome replication” value is on record as “dose-dependent increase in inhibition of HCV genome replication”.

For the origin of these results see patent publication US20140227375A1, “PIP-2 Inhibition-Based Antiviral and Anti-Hyperlipidemic Therapies” (priority 2008, published 2014).
